Results on 1 molecule are retold here after patent US20250235418A1, “Butyrate Analogues and Methods of Use for HIF Stabilization and Treatment of Bowel Disease” (THE REGENTS OF THE UNIVERSITY OF COLORADO, A BODY CORPORATE, priority 2022, published 2025).

In one assay the target is T1, PHD2181-402 (Homo sapiens, UniProt Q9GZT9).
T1 construct: made in house
Nature of the assay: microscale thermophoresis (MST) binding to PHD2181-402. The text has this: Measurements were repeated 3 times.
Uncompetitive inhibitors only bind to the enzyme substrate complex, whereas noncompetitive inhibitors can bind to enzyme alone or enzyme substrate complex since the inhibitor has a unique binding site distinct from the substrate binding site. […] Thus, our findings indicate that butyrate functions as a noncompetitive PHD inhibitor with a unique binding site.

Assay [1] has as its system HIF-1α / PHDs in murine colon tissue. Briefly: rectal gavage of butyrate or IOX2 in antibiotic SCFA-depleted mice. The format is in vivo. The settings on record: 1 h, 100 mM butyrate, 1.5 mM IOX2.
The test system of the next assay is HIF-1α in T84 cells. Nature of the assay: HIF stabilization by butyrate in T84 cells (HIF-1α target mRNA, HIF-1α protein). It counts as cell-based. Conditions: 4 h. The protocol:
(C) Quantified densitometry of HIF-1α protein expression in T84 cells treated with 10 mM butyrate with or without 1 mM MCPA for 4 h

For the next assay, the system named is HIF1α in T84 cells. Nature of the assay: HIF1α immunoblot in T84 cells (MBA vs BA). It counts as cell-based. Conditions: T84 cells. The protocol: (A) Structures of butyrate derivatives investigated in initial screen for HIF stabilization. Immunoblot of HIF1a protein levels in Caco-2 cells (B) and T84 cells (C) exposed to veh (HBSS+), […], or 5 mM butyrate derivatives for 6h. (D) Dose response study of HIF1a accumulation in T84 cells treated with decreasing concentrations of MBA and BA for 6 h.
(A) Immunoblots of HIF1a protein over time after exposure of T84 cells to 5 mM BA and MBA. (B) Mesoscale assay of HIF1a protein over time in caco-2 cells treated with 5 mM MBA compared to veh. (C) HIF1a and HIF target (BNIP3) protein in caco-2 cells exposed to veh (HBSS+), […] or 5 mM MBA. Data are presented as mean+S.E.M, *p<0.05, **p<0.01, ***p<0.001.
Endogenous and non-endogenous butyrate derivatives with specifically chosen functional groups at different positions within the small molecule and assess their effects on HIF stabilization (FIG. 21A). To study a small library of butyrate derivatives we employed an electrochemiluminescence based assay to quantify HIF1α levels using the Meso Scale Discovery (HIF1α MSD assay, http://www.mesoscale.com) technology. Similar to the sandwich enzyme-linked immunosorbent assay (ELISA), this technology captures and detects HIF1α protein using two specific antibodies but utilizes electrochemiluminescence-based signal generation and detection. Using lysates from intestinal epithelial cells (IECs) caco-2 and T84 exposed to a physiological relevant concentration of 5 mM butyrate derivatives for 4h, this assay was employed to determine HIF1α protein concentration. A bona-fide and potent PHD2 inhibitor (IOX4) was used to stabilize HIF1α as a positive control. Various butyrate derivatives increased HIF1α relative concentration in both cell lines compared to low signals detected in untreated lysates. […] We decided to focus on this interesting butyrate derivative for further studies.
To elucidate the effectiveness of MBA to stabilize HIF1α over time and possibly shine light on how quickly it can be metabolized in-vitro, time-course studies where performed between BA and MBA, IOX4 was used as a positive control. […] Employing the HIF1α MSD assay, we screened for various timepoints in caco-2 cell lysates exposed to MBA (5 mM). […] BNIP3 is involved in cell survival and is a known HIF1α target that is induced through chemical stabilization of HIF or hypoxia. BNIP3 promoter comprises a functional hypoxia response element (HRE) and can be activated by HIF1α.[5] Parallel to our HIF stabilization time course studies, we wanted to assess the transcriptional activity of the stabilized protein over time.

SMILES strings stand for the structures.

T1 sequence (Q9GZT9 181-402): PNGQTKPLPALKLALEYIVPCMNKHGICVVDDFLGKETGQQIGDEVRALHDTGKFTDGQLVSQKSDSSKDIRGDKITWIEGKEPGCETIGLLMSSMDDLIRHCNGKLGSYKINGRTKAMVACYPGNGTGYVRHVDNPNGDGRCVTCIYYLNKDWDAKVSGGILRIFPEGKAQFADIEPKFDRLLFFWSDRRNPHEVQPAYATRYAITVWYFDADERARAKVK

Consider `CCCC(=O)O` [Butyrate, Butyric acid], for which the dissociation constant (Kd) on PHD2181-402 (25 nM PHD2181-402, without 2-OG, read-out: dissociation constant (KD)) turned out to be 2000 ± 3000 µM. For the same molecule, the “binding to PHD2181-402 in the presence of 2-OG by MST” value at PHD2181-402 (with 500 nM 2-OG) was “no butyrate binding”. Moreover, in assay [1], the “colon tissue 2-OG levels after antibiotics” value was “rescued” and the “mRNA expression of HIF-1α targets Bnip3, Bnip3l, Glu1 after antibiotics” value was “rescued”. In the assay with HIF-1α in T84 cells (10 mM butyrate with 1 mM MCPA), the “HIF stabilization in the presence of MCPA” value is listed as “still stabilized HIF”. Besides, in the assay with HIF-1α in T84 cells (10 mM), the HIF-1α protein levels result is recorded as “increased” and the “HIF-1α target genes BNIP3, BNIP3L, GLUT1 mRNA” value is listed as “induction of HIF-1α target genes”. Also, the “HIF1α stabilization over time (immunoblot)” value in the assay with HIF1α in T84 cells (5 mM BA and MBA, IOX4 positive control) is reported as “no longer stabilized at 48h”. Further, in the assay with HIF1α in T84 cells (decreasing concentrations, 6 h), the “dose response of HIF1α accumulation” value is recorded as “quickly becomes ineffective”.
